Patent US8008023B2, “Natural ligand of G protein coupled receptor RCC356 and uses thereof” (Chemcom S.A., priority 2005, dated 2011)

How the values were obtained:
[1] = molecular target: T1, RCC356 (Homo sapiens, UniProt Q8TCB6); experiment: Concentration-response analysis of odorants on Hek293 cells overexpressing RCC356 polypeptide, CRE-luciferase reporter (Dual-Glo); assay type: cell-based; conditions: for EC50: 0.1 μM to 1 mM, CRE-luciferase, read-out: Ec50 of RCC356 activation
T1 construct: expressed in transfected cells; host or cells: Hek293 cells, transient transfection with lipofectamine 2000
T1 sequence (Q8TCB6 1-318): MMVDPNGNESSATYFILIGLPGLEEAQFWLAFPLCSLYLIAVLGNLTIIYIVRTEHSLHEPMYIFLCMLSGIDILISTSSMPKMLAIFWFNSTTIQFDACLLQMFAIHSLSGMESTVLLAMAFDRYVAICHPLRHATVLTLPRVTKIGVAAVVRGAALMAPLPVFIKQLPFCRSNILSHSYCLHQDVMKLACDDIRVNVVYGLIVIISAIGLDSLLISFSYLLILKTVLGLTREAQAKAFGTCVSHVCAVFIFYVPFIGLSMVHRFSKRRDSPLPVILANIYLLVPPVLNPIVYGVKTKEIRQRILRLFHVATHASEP
Experimental: (§1) To further validate hits found during screenings of 80 odorants on RCC356 overexpressing-Hek293 cells, concentration-response analyses have been performed. Hek293 cells were grown in MEM supplemented with decomplemented FBS at 37° C. under 5% CO2 and 90% humidity. Two days before screening, cells were plated onto 96-well plates (PDL coated plates, Becton-Dickinson). The day after, cells were transfected with a plasmid encoding RCC356 polypeptide along with 2 plasmides encoding firefly luciferase and renilla luciferase respectively. Firefly transcription was driven by a minimum promoter including the CREB-response element (CRE), whereas renilla luciferase was driven by CMV promoter, a strong constitutive promoter. Transfection was performed using lipofectamine 2000 reagent (Invitrogen). Transfected cells were let under standard culture conditions for a further 24 hours, and then process for functional assay.
(§2) First, tested odorants (isovaleric, valeric, propionic, hexanoic, heptanoic, caprilic and pelargonic acids) were dissolved as 1M solutions in DMSO. They were then plated onto 96-well plates at different concentrations ranging from 0.1 μM to 1 mM in HBSS (Cambrex). DMSO represented thereby less than 1% (v/v) of the odorant solutions. Positive controls such as forskolin were included in odorant plates. Forskolin activates production of cAMP that in turn, through binding to CREB transcription factor triggers production of firefly luciferase, the reporter gene of the system. Detected luciferase activity in each well could be thereby expressed as a percent of forskolin response, allowing standardization thereon.
(§3) Functional assay was performed using Dual-Glo luciferase assay Kit according to manufacturer instructions (Promega).

[2] = molecular target: T1, RCC356; experiment: Screening of 80 odorants on RCC356 overexpressed in Hek293 cells, CRE-luciferase reporter (Dual-Glo); assay type: cell-based; conditions: Hek293 overexpressing RCC356; for RCC356 activation in odorant screening (luciferase activity as percent of forskolin response): odorants plated as 200 μM solutions in HBSS, two independent screenings; for hit found in both independent screenings: two independent screenings of 80 odorants
Experimental: as §1, with “Hek293” for “To further validate hits found during screenings of 80 odorants on RCC356 overexpressing-Hek293 cells, concentration-response analyses have been performed. Hek293”
as §2, with “Odorants” for “First, tested odorants (isovaleric, valeric, propionic, hexanoic, heptanoic, caprilic and pelargonic acids)”, “as 200” for “at different concentrations ranging from 0.1”, “solutions” for “to 1 mM”
as §3

| Compound | EC50 [1] | RCC356 activation in odorant screening (luciferase activity as percent of forskolin response) [2] | hit found in both independent screenings [2] | efficiency of ligand on RCC356 activation ([1]; percent of forskolin response (FIG. 3A)) |
| --- | --- | --- | --- | --- |
| CCCCCCCC(=O)O [caprilic acid, caprylic acid] | 329 µM | seemed to lead to RCC356 activation | – | – |
| CCCCCC(=O)O [caproic acid] | 91 µM | seemed to lead to RCC356 activation | – | – |
| O=C(O)C1CCCCC1 [hexahydrobenzoic acid] | 104 µM | – | – | – |
| CCCCCCCCC(=O)O [pelargonic acid] | 643 µM | seemed to lead to RCC356 activation | – | – |

Further lines, results first:

| EC50 [1] | RCC356 activation in odorant screening (luciferase activity as percent of forskolin response) [2] | hit found in both independent screenings [2] | efficiency of ligand on RCC356 activation ([1]; percent of forskolin response (FIG. 3A)) | Compound |
| --- | --- | --- | --- | --- |
| 485 µM | – | – | – | C=CCCCC(=O)O [5-hexenoic acid] |
| 25 µM | seemed to lead to RCC356 activation | found in both screening | most efficient ligand | CC(C)CC(=O)O [isovaleric acid] |
| 260 µM | seemed to lead to RCC356 activation | – | – | CCCCCCC(=O)O [oenanthylic acid] |
| – | seemed to lead to RCC356 activation | – | – | CCC(=O)O [propionic acid] |
| 97 µM | seemed to lead to RCC356 activation | found in both screening | – | CCCCC(=O)O [valeric acid] |
